Experiments:
CHO-CFTR(-) cells = test: 125I iodide efflux in CHO-CFTR(-) control cells that do not express CFTR; format: cell-based, Chinese hamster; conditions: octan-1-ol 0.1 to 5 mM, FSK 5 μM, A23187 2 μM
CFTR channel [1] = molecular target: T1, CFTR channel (Homo sapiens, UniProt P13569); test: 125I radioactive iodide efflux in CHO-CFTR(+) cells; format: cell-based; parameters: expressed in transfected cells; host or cells: CHO (Chinese hamster ovary) cells, CHO-CFTR(+); conditions: for activation of CFTR (125I efflux), in words: n-alkanols 1 mM, FSK 1 μM, A23187 2 μM, α-GA 10 and 100 μM; for effect of inhibitor on activated 125I efflux: CHO-CFTR(+) cells stimulated by octan-1-ol 1 mM, FSK 1 μM or both, glibenclamide 100 μM, H-89 30 μM, PKC inhibitor; for order of activation of CFTR by n-alkanols: 1 mM, 125I efflux or patch-clamp
Description: The cells are cultured in 24-well plates with a dilution to 1/10 after passage. […] The operation is repeated every 30 s for 2 to 6 min. […] All the samples are counted in a gamma counter (Kontron). The precipitated proteins are solubilized in 0.1N NaOH and quantified using a calorimetric test.
(§1) The tracer contained in the cell layer at the beginning of the efflux is calculated as the sum of the samples and of the extracts counted. The efflux curves are constructed by expressing the percentage of the content remaining in the cell layer (I %) with respect to time. The stimulated or nonstimulated efflux rate constants (k, min^−1) are determined by smoothing the efflux curves to a monoexponential function I %=100*exp(−kt) using a linear regression of the neperian logarithm of the data, k is used to calculate the iodide released into the medium with respect to time. The hypothesis is made that, in the presence of a stimulator, the efflux is the sum of two iodide effluxes occurring in parallel: a basal efflux and a stimulated efflux characterized, respectively, by the constants kb and ks. The total net efflux is then described by the equation It^%=100*(1−exp(−ktt)) where kt is the sum of kb and ks. Finally, ks calculated as kt−kb is used to establish a dose-response relationship for antagonists. The data is expressed as means ±SD, and the t-test is used to determine the significances. The concentration-response curves for agonists or for antagonists are smooth using the hyperbolic equation Y=Ymax*X/(EC5C+X), where Y is the response. Y begins at the basal level and progresses to the plateau (Ymax), X is the concentration and the half-effect values (EC are calculated using GraphPad Prism v3.0 (GraphPad software)).

[2] = molecular target: T2, ΔF508 mutated CFTR channel (Homo sapiens, UniProt P13569, DEL508-508); test: iodide efflux in JME/CF15 human bronchial epithelial cells from cystic fibrosis patients; format: cell-based; conditions: glibenclamide 100 μM, DIDS 500 μM
T2 construct: epithelial cells extracted from respiratory airways of patients suffering from cystic fibrosis (homozygous ΔF508); endogenous in cells; host or cells: JME/CF15 human airway epithelial cells (homozygous ΔF508)
Description: (§2) The CFTR studies are also carried out on Calu-3 cells (ATCC No. HTB-55), which are human pulmonary epithelial cells endogenously expressing the CFTR channel. These cells are cultured under the same culture conditions as the CHO cells. The study of the mutated CFTR channel is carried out on JME/CF15 cells, which are epithelial cells extracted from respiratory airways of patients suffering from cystic fibrosis (homozygous ΔF508) (Jefferson et al., 1990). These cells therefore express the ΔF508 mutated CFTR channel. These cells are cultured under the same conditions as above, but the culture medium is supplemented with a hormone mixture containing: adenine (180 μM), insulin (5 μg/ml), transferrin (5 μg/ml), hydrocortisone (1.1 μM), triiodothyronine (2 nM), epinephrine (5.5 μM), epidermal growth factor (1.64 nM).
(§3) This technique makes it possible to follow the kinetics of exit of the ^125I radioactive iodide. The cells are cultured in 24-well plates with a dilution to 1/10 after passage. On the fourth day of culture, the drugs to be tested are dissolved in solution according to the desired concentration, at 37° C., in medium B, at pH 7.4, containing, in mM: 137 NaCl, 5.36 KCl, 0.8 mM MgCl2, 1.8 mM CaCl2, 5.5 glucose and 10 HEPES-NaOH. The wells are washed 4 times with 500 μl of medium B. The solution is subsequently replaced with 500 μl of loading solution containing 1 μM KI and 0.5 μCi of ^125INa/ml for 30 min. The kinetics of exit of ^125I are determined after having eliminated the loading solution and washed the wells 4 times with 500 μl of medium B. For the ^125I exit kinetics, 500 μl of medium B containing or not containing the molecules to be tested are incubated for 30 sec in the wells and recovered in a hemolysis tube, so as to be replaced with 500 μl of medium B containing or not containing the molecules to be tested. The operation is repeated every 30 s for 2 to 6 min. At the end of the efflux, the intracellular ions are extracted by adding 1 ml of trichloroacetic acid (7.5%) to the cell layer. All the samples are counted in a gamma counter (Kontron). The precipitated proteins are solubilized in 0.1N NaOH and quantified using a calorimetric test.
as §1, with “The concentration-response curves for agonists or for antagonists are smooth using the hyperbolic equation Y=Ymax*X/(EC5C+X), where Y is the response.” left out

[3] = molecular target: T3, human CFTR channel endogenously expressed in Calu-3 (Homo sapiens, UniProt P13569); test: iodide efflux in Calu-3 human bronchial epithelial cells; format: cell-based; conditions: Calu-3; 1 hour treatment; glibenclamide 100 μM, DIDS 500 μM
T3 construct: human pulmonary epithelial cells endogenously expressing the CFTR channel; host or cells: Calu-3 human pulmonary epithelial cells
Description: as §2, §3
as §1, with “The concentration-response curves for agonists or for antagonists are smooth using the hyperbolic equation Y=Ymax*X/(EC5C+X), where Y is the response.” left out

intracellular cAMP level = test: total intracellular cAMP assay in CHO-CFTR(+) cells; format: cell-based, Chinese hamster; conditions: 5 min, FSK 1 or 5 μM, alcohols 1 mM
Description: The CHO cells are cultured for four days in a 24-well culture plate. On the fourth day of culture, each well is rinsed twice with 500 μl of medium B, and 500 μl of this buffer containing the molecule to be tested are added to each well. After incubation at 37° C. for 5 min, the reaction is stopped by adding a cell lysis buffer. The cell lysis is verified with Trypan blue. The amount of cAMP contained in the cells is determined using the Enzyme Immuno Assay kit (Amersham Biotechnology). The cAMP level is expressed in pmol/well ±SD.

CFTR channel [4] = molecular target: T1, CFTR channel; test: whole-cell patch-clamp in CHO-CFTR(+) cells; format: cell-based; parameters: expressed in transfected cells; host or cells: CHO (Chinese hamster ovary) cells, CHO-CFTR(+); conditions: glibenclamide 100 μM
Excerpt: The patch-clamp technique consists in applying a glass pipette or a glass microelectrode to the surface of the cell. By applying slight touch, it is possible to cause the membrane to adhere to the glass. A small piece of membrane (patch) is thus isolated at the end of the pipette. This is the principle of patch-clamp (O. P. Hamill et al., Pflügers Arch., 1981, 391, 85-100; R. Penner, A Practical Guide to Patch Clamping, 1995, In Single Channel Recording, 2nd edition (Eds. B. Sakmann et al.) Plenum Press, New York, 3-30). To do this, the patch-clamp pipette must have a tip of the order of 1 μm in diameter and a resistance of the order of 1-5 MΩ. The resistance of a pipette or of a microelectrode makes it possible to assess the fineness of the tip: the greater the resistance, the finer the tip or the more the electrode is blocked. […] Interactions between the membrane and the glass will form, aided by a slight suction or negative pressure in the pipette. The quality of this interaction (or sealing) is also assessed by measuring the resistance between the glass and the membrane. To measure overall currents in the whole cell configuration, a sealing resistance of 1 GΩ is sufficient.
More specifically, culture dishes (cell support) are placed in an experimentation cell (volume 1 ml) on the platform of an inverted microscope (Nikon) equipped with phase-contrast lighting. The whole-cell configuration is used for recording the cell currents (Hamill et al., 1981). The experiments are carried out at ambient temperature (20-22° C.). The currents are amplified with an Axopatch 200B amplifier (Axon Instrument Ltd) having a 2-5 kHz low-pass filter (Bessel 6-pole filter), and recorded on the hard disk of a PC after digitization at 10-25 kHz. The pipettes are produced from glass tubes 1 mm in diameter (Clark Electromedical Instrument) in four steps with a horizontal drawing device (Bruwn Flaming 97, CA).
The pipettes, filled with an intracellular solution containing, in mM: 60 KCl; 80 NMDG ([…]); 10 HEPES; 5 EGTA; 1 CaCl2; 4 MgATP; 0.2 Na3GTP; pH 7.4, titrated with KOH), having a resistance of 5 MΩ. The potentials are expressed as the difference between the potential of the patch electrode and that of the bath. In the whole-cell configuration, they represent the membrane potential of the cell. The junction potentials that form between the recording electrode and the extracellular medium are eliminated before the contact of the electrode with the cell. […] The current-voltage relationships in the stationary state are determined using slow voltage ramps (20 mV/.s) under an imposed voltage condition. […]

T1 sequence (P13569 whole entry): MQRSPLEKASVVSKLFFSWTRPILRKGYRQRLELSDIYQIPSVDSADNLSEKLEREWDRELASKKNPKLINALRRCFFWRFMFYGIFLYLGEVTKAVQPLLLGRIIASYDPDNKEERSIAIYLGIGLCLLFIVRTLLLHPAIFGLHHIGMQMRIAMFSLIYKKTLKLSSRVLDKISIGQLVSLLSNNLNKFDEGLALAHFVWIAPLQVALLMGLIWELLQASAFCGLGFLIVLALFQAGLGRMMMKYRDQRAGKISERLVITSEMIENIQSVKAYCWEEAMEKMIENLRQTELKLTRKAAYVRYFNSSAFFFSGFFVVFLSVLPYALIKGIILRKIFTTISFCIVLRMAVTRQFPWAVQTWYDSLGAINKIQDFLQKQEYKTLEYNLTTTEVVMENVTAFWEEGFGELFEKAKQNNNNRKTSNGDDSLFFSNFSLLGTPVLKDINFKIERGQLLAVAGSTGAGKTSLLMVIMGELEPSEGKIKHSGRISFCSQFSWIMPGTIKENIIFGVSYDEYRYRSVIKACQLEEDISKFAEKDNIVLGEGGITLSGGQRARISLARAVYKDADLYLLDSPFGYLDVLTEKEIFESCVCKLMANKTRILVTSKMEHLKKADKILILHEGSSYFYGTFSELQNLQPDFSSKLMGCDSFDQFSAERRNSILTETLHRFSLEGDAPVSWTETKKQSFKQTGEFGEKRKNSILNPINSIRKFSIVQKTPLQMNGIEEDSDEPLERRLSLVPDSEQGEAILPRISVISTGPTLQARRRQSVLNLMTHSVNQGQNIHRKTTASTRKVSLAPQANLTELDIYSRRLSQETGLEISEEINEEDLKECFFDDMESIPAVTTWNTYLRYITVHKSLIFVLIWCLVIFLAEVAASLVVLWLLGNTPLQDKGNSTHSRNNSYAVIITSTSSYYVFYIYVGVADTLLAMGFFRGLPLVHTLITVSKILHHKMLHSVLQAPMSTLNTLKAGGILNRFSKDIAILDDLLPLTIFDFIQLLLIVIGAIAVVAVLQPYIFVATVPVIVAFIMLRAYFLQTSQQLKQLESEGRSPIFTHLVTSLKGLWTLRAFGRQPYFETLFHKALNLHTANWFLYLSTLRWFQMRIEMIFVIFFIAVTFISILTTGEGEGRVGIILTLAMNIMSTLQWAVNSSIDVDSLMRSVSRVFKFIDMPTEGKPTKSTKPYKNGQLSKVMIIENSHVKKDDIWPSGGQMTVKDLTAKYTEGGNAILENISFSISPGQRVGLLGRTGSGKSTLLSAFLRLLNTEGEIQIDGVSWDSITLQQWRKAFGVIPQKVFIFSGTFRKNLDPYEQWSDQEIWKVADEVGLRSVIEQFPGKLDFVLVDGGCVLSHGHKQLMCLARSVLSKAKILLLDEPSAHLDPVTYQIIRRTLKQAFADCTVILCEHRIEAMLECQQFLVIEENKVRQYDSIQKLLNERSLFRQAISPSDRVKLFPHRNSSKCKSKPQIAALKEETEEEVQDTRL
T2 sequence (P13569 with tags, fused parts or gaps DEL508-508): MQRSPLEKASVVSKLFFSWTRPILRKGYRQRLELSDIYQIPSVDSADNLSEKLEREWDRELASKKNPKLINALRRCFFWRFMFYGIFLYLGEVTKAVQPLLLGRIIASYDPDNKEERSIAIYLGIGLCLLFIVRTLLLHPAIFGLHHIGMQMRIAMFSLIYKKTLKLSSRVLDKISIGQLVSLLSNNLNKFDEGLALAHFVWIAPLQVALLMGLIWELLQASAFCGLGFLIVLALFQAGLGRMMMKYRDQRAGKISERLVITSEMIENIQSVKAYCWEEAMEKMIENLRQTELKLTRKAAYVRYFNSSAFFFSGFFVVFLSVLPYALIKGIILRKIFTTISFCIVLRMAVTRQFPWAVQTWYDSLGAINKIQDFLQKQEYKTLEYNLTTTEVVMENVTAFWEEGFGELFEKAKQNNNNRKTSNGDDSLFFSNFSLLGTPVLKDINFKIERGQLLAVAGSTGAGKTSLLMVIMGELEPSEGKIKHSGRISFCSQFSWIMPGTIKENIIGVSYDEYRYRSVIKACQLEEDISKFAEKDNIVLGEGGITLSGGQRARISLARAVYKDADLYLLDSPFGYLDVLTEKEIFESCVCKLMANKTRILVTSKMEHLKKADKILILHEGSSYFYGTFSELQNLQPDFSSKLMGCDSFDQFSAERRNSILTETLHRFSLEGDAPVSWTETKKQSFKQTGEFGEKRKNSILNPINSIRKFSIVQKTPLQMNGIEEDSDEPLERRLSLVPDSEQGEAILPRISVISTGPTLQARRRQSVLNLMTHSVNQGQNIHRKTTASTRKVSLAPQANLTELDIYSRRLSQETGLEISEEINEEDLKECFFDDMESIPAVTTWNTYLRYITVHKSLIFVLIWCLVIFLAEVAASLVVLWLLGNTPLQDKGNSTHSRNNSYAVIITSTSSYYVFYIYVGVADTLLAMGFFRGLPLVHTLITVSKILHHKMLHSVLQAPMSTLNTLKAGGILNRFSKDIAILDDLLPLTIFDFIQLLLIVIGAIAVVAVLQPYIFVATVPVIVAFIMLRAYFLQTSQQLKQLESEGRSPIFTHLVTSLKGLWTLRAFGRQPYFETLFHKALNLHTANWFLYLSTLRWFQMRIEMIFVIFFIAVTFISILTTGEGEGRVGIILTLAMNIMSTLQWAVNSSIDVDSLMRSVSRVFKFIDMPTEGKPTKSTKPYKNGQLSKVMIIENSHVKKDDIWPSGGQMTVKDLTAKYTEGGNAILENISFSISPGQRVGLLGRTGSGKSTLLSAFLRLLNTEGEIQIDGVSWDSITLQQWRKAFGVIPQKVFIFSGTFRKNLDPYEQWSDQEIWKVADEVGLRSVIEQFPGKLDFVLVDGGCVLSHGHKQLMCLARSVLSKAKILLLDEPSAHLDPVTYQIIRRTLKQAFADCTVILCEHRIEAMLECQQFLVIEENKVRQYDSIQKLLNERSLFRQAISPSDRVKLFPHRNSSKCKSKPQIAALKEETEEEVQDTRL
T3 sequence (P13569 whole entry): as the sequence (P13569 whole entry) above

Row | Compound | activation of CFTR (125I efflux), in words (CFTR channel [1]; CHO-CFTR(+) cells) | order of activation of CFTR by n-alkanols (CFTR channel [1]) | other results
1 | CNc1ccc2oc(C[C@H]3O[C@@]4(CC[C@H]3C)O[C@H]([C@H](C)C(=O)c3ccc[nH]3)[C@H](C)C[C@H]4C)nc2c1C(=O)O [A23187, reference compound] | has no effect | – | effect on basal level of 125I efflux in cells not expressing CFTR (CHO-CFTR(-) cells): has no effect
2 | O=S(=O)(O)c1cc(N=C=S)ccc1C=Cc1ccc(N=C=S)cc1S(=O)(=O)O [DIDS, 4,4′-diisothiocyanatostilbene-2,2′-disulfonic acid, reference compound] | – | – | effect of inhibitor on CFTR-ΔF508 activation by octan-1-ol [2]: insensitive; effect of inhibitor on octan-1-ol-activated efflux [3]: has no effect
3 | C=C[C@@]1(C)CC(=O)[C@]2(O)[C@@]3(C)[C@@H](O)CCC(C)(C)[C@@H]3[C@H](O)[C@H](OC(C)=O)[C@@]2(C)O1 [FSK, forskolin, reference compound] | – | – | EC50 (CFTR channel [1]; EC50 of activation of CFTR (125I efflux rate constant), CHO-CFTR(+) cells, FSK 0.1 to 5 μM): ~500 nM
4 | O=S(=O)(NCCNC/C=C/c1ccc(Br)cc1)c1cccc2cnccc12 [H-89, reference compound] | – | – | effect of inhibitor on activated 125I efflux (CFTR channel [1]): inhibited
5 | CCCCCCCCCCO [decan-1-ol] | significantly activates the CFTR channel | hexan-1-ol<heptan-1-ol<octan-1-ol<octan-2-ol<decan-1-ol | –
6 | CCO [ethanol, reference compound] | do not activate the CFTR channel | – | effect on intracellular cAMP level (intracellular cAMP level): neither octan-1-ol, hexan-1-ol or ethanol modifies the basal cAMP level
7 | COc1ccc(Cl)cc1C(=O)NCCc1ccc(S(=O)(=O)NC(=O)NC2CCCCC2)cc1 [glibenclamide, reference compound] | – | – | effect of inhibitor on activated 125I efflux (CFTR channel [1]): completely inhibited; effect of inhibitor on CFTR-ΔF508 activation by octan-1-ol [2]: inhibited; effect of glibenclamide on FSK- or octan-1-ol-induced current (CFTR channel [4]): completely inhibited; effect of inhibitor on octan-1-ol-activated efflux [3]: strongly blocked
8 | CCCCCCCO [heptan-1-ol] | increase in activation of CFTR | hexan-1-ol<heptan-1-ol<octan-1-ol<octan-2-ol<decan-1-ol | –
9 | CCCCCCO [hexan-1-ol] | significantly activates the CFTR channel | hexan-1-ol<heptan-1-ol<octan-1-ol<octan-2-ol<decan-1-ol | effect on intracellular cAMP level (intracellular cAMP level): neither octan-1-ol, hexan-1-ol or ethanol modifies the basal cAMP level
10 | CO [methanol, reference compound] | not significantly different from the unstimulated efflux | – | –
11 | CCCCCCC(C)O (stereo not drawn) [octan-2-ol] | also activates the CFTR protein | hexan-1-ol<heptan-1-ol<octan-1-ol<octan-2-ol<decan-1-ol | –
12 | butan-1-ol [reference compound] | not significantly different from the unstimulated efflux | – | activation of CFTR (125I efflux), in words (CFTR channel [1]; CHO-CFTR(+) cells, listed as butanol): do not activate the CFTR channel

From patent US20070191493A1, “Use of n-alkanols as activators of the cftr channel” (priority 2003, published 2007)
